Calls of active or inactive are those of the source.
How the values were obtained:
[1] = molecular target: T1, E3 ubiquitin-protein ligase XIAP (Homo sapiens, UniProt P98170); assay: Counter Screen using XIAP-Bir3 for Chemical Antagonists of Bir1/2 domains of IAP-family anti-apoptotic proteins. [Related pubchem assays (depositor defined):AID1018, AID1449, AID1514, AID1638, AID1749, AID1750, AID488957, AID488963]
[2] = molecular target: T1, E3 ubiquitin-protein ligase XIAP; assay: small molecules displacing peptide from XIAP – biochemical, IAP family, fluorescence polarization (AID 1018); type: functional
[3] = Trypanosoma cruzi growth suppression in host cells – NIH3T3 host cells, beta-gal luminescence, confirmation (AID 2044); type: functional, cell-based;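 note: intracellular parasites grown in NIH/3T3 mouse fibroblasts as host cells; luminescent beta-galactosidase reporter signal from transgenic T. cruzi replicating inside host cells; inhibitors lower the luminescence signal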
[4] = NIH3T3 cell viability loss – ATP luminescence, mouse fibroblasts, counter-screen, dose response (AID 2010); type: functional, cell-based;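 note: cells exposed to compound for about 90 hours before reading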
INS1 = assay: INS-1E survival protection against cytokine death – cell-based, luminescence, retest, dose response (AID 449756); type: functional; conditions: Rattus norvegicus;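 note: cell death triggered by IL-1 beta plus TNF-alpha plus IFN-gamma mixture; protective hits raise ATP signal compared with cytokine alone wells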
CHO = CHO cell viability loss, potency – luminescence, cytotoxicity control for TLR9-MyD88 binding inhibitor project, dose response (AID 588339); type: functional, cell-based, hamster; conditions: Cricetulus griseus;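 note: CHO cells stably coexpressing TLR9 and MyD88 fusions from primary screen; compound exposure lasted 48 hours before viability readout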
Beta Lactamase = Beta Lactamase (Pseudomonas aeruginosa, UniProt Q932Y6); assay: BLA reporter interference, concentration series – BLA reporter cells, FRET fluorescence, artefact control for TLR9-MyD88 binding inhibitor project, dose response (AID 588341); type: cell-based;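 note: cell based assay in CHO-K1 cells stably expressing beta-lactamase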
Beta Lactamase, sequence (Q932Y6 whole entry): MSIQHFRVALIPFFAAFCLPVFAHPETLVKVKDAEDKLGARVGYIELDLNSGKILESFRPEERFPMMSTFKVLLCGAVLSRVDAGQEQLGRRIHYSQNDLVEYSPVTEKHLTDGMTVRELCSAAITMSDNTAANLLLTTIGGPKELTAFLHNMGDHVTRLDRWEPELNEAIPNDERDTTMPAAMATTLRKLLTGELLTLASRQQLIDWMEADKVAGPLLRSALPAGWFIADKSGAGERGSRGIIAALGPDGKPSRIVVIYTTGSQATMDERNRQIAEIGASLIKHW

[5] = NIH-3T3 fibroblast cytotoxicity, dose response, cytotoxicity control, cell-based, fluorescence, Alamar Blue, secondary assay (AID 2327); type: functional;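 note: NIH-3T3 mouse fibroblasts cultured with fluconazole at 8 µg/mL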
[6] = fluconazole-exposed Candida albicans growth modulators – fluorescence, retest, confirmation (AID 2467); type: functional, cell-based
[7] = molecular target: Serine/threonine-protein phosphatase (Candida dubliniensis (strain CD36 / CBS 7987 / NCPF 3949 / NRRLY-17841) (Yeast), UniProt B9W6M3); assay: blockers of CaCl2-induced CDRE-lacZ signaling – S. cerevisiae, luminescence, secondary, dose response (AID 2388); type: functional, cell-based;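 note: yeast reporter cells carrying a calcineurin-responsive lacZ construct stimulated with calcium chloride; luminescent beta-galactosidase reporter signal in whole cells rather than isolated phosphatase activity; potency for inhibition where a drop in reporter signal means calcineurin blockade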
Serine/threonine-protein phosphatase, sequence (B9W6M3 whole entry, the tested form may be a part): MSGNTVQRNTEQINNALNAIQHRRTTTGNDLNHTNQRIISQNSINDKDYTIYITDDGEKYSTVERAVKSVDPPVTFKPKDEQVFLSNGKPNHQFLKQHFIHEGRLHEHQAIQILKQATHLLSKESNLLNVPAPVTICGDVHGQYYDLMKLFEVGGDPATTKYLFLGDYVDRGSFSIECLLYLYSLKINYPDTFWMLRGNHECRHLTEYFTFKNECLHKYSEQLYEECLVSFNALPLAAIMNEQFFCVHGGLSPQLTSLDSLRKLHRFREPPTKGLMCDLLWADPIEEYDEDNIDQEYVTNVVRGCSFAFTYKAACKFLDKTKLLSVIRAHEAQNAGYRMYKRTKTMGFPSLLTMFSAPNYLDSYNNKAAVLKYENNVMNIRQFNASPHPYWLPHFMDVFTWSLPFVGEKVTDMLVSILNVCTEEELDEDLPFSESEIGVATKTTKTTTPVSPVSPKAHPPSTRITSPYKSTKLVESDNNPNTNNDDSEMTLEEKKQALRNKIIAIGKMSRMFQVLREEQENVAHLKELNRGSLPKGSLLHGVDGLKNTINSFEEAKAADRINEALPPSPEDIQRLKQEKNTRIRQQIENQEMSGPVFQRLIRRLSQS

[8] = molecular target: NACHT, LRR and PYD domains-containing protein 3 (Homo sapiens, UniProt Q96P20); assay: NALP3 inhibitors in yeast, dose response, luminescent (AID 488799); type: functional
[9] = molecular target: ATP-dependent molecular chaperone HSP82 (Candida albicans (strain WO-1) (Yeast), UniProt C4YTQ8); assay: steroid-induced GRE reporter decrease in yeast – S. cerevisiae, luminescence, Hsp90 inhibitor project, dose response (AID 2400); type: functional, cell-based;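 note: beta-galactosidase luminescence from glucocorticoid response element reporter as proxy for Hsp90 function; inhibitor potency where signal loss means Hsp90 inhibition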
ATP-dependent molecular chaperone HSP82, sequence (C4YTQ8 whole entry): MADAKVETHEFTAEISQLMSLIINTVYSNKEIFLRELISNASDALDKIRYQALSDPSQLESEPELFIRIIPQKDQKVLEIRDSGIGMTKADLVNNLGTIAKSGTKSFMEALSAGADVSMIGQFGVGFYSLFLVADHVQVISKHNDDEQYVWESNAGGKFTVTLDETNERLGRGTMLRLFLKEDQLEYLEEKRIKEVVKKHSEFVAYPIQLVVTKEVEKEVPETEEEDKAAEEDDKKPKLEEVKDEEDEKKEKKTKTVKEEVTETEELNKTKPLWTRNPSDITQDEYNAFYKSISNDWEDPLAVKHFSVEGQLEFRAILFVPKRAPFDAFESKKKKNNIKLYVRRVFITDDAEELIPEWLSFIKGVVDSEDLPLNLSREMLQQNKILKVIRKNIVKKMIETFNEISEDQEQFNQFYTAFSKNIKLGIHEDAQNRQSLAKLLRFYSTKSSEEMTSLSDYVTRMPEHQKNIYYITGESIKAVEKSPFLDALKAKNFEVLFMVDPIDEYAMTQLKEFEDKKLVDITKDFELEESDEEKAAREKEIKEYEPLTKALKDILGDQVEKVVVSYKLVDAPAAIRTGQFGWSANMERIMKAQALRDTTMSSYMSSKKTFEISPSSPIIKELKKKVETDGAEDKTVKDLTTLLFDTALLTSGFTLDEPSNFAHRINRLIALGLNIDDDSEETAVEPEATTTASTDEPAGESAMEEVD

Escherichia coli = assay: microbe, parasite or virus in culture
BJ [10] = assay: BJ-TERT fibroblast viability loss – cell-based, RAS-independent, luminescence, dose response (AID 1933); type: functional; conditions: Homo sapiens
BJ [11] = assay: cells; type: functional, cell-based; conditions: Homo sapiens
BJ [12] = assay: BJ-TERT-LT-ST fibroblast viability loss – cell-based, RAS-independent, luminescence, dose response (AID 1935); type: functional; conditions: Homo sapiens;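 note: BJ fibroblasts immortalized with TERT plus LT and ST oncogenes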
[13] = DRD fibroblast viability loss – cell-based, non-viral oncogenic, luminescence, dose response (AID 1934); type: functional; conditions: Homo sapiens
HEK293 [14] = assay: cells; conditions: Homo sapiens
HEK293 [15] = assay: cells; conditions: Homo sapiens; remark: listed apart in the source
Ion channel NompC = Ion channel NompC (Danio rerio, UniProt Q7T1G6); assay: Dose response cell-based high-throughput screening assay for agonists of the transient receptor potential channel N1 (TRPN1). [Related pubchem assays (depositor defined):AID1424, AID1448]; type: functional
Ion channel NompC, sequence (Q7T1G6 whole entry): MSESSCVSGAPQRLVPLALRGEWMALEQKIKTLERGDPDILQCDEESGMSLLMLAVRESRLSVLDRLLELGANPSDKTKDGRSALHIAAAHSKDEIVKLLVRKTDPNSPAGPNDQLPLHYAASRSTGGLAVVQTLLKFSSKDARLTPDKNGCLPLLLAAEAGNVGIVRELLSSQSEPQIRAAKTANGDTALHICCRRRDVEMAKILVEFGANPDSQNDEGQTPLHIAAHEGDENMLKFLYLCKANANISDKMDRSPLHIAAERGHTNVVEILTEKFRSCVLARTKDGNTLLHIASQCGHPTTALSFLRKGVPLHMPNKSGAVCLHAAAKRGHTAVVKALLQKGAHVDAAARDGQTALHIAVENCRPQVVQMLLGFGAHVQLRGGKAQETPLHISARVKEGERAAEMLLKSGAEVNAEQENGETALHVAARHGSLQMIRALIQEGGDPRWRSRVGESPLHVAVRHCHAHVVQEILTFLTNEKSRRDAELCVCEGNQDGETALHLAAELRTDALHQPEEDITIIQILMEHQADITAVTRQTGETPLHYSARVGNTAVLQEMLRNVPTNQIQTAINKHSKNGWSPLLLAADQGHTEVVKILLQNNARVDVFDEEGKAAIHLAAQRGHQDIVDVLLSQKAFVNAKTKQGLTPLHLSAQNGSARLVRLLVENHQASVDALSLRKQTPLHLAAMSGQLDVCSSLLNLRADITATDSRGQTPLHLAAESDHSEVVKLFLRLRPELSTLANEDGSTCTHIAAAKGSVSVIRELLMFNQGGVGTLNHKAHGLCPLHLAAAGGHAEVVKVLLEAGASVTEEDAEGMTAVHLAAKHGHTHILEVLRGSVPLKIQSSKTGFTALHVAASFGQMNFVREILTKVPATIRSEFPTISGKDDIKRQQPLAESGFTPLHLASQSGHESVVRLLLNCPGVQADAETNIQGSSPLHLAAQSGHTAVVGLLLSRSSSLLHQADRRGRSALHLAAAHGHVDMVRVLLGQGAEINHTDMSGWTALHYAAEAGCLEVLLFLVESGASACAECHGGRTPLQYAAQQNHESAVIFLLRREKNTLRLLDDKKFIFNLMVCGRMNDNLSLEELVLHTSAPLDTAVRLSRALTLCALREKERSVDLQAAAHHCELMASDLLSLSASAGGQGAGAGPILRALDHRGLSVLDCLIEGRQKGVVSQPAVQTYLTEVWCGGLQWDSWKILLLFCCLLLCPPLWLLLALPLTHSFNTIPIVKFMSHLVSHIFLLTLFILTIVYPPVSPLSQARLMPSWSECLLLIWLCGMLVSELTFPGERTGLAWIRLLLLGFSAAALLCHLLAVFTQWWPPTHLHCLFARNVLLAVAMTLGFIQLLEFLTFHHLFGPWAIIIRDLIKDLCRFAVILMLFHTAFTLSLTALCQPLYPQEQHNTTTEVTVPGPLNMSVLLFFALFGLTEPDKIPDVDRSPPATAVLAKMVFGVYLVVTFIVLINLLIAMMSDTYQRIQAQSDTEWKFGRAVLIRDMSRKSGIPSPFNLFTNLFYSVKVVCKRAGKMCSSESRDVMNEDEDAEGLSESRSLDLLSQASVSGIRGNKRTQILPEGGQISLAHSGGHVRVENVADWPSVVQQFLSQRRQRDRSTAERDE

Mucolipin-3 = molecular target: T2, Mucolipin-3 (Homo sapiens, UniProt Q8TDD5); assay: Fluorescence counterscreen assay for […] agonists: dose response cell-based high-throughput screening assay to identify agonists of the transient receptor potential channel ML3 (TRPML3). [Related pubchem assays: 1424, 1448 ]; type: functional
T2 sequence (Q8TDD5 whole entry): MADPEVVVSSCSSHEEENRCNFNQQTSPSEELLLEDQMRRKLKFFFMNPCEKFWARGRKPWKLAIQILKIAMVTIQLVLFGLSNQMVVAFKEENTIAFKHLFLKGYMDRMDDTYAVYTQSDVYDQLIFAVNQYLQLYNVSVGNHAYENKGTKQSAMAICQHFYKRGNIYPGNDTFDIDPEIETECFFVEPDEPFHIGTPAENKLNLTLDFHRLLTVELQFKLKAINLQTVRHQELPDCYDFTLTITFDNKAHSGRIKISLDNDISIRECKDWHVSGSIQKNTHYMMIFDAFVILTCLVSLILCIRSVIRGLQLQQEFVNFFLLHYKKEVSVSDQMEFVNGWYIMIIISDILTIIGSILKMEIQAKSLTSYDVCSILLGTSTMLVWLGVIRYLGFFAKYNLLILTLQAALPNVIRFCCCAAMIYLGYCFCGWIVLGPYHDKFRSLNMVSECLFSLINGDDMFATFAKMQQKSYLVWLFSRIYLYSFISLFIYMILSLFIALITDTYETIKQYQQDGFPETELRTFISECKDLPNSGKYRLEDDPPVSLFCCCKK

[16] = Luminescence Cell-Based Dose Retest to Confirm Inhibitors of Cancer Stem Cells. [Related pubchem assays (depositor defined):AID2717, AID2721]; type: functional; conditions: Homo sapiens
[17] = viability loss of HMLE_sh_eGFP cells – cell-based, luminescence, counter-screen for HMLE_sh_ECad selective toxicity project, dose response (AID 463074); type: functional, Homo sapiens;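 note: HMLE human mammary epithelial cells expressing control shRNA against eGFP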
[18] = viability of uninfected HEp-2 cells – cell-based, HTS, cytotoxicity control for RSV inhibitor project, dose response (AID 2410); type: functional; conditions: human respiratory syncytial virus
[19] = molecular target: T3, Corticotropin-releasing factor receptor 2/Corticotropin-releasing factor-binding protein (Homo sapiens, UniProt P24387+Q13324); assay: activators of CRF receptor 2 with binding protein – uHTS hits, confirmation (AID 602473); type: functional; conditions: read-out: EC50_Mean
T3 sequence (Q13324 whole entry): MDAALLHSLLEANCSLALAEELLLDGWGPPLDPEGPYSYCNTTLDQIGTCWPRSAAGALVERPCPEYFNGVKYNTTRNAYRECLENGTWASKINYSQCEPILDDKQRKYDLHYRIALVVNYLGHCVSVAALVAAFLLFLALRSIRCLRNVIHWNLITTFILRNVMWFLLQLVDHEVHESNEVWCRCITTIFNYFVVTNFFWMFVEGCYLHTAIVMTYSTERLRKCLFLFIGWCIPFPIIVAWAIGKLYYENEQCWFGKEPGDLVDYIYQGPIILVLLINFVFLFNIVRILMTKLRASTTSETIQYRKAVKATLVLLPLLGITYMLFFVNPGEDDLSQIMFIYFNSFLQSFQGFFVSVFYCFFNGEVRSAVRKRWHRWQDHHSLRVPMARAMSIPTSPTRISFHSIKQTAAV
T3 sequence (P24387 whole entry): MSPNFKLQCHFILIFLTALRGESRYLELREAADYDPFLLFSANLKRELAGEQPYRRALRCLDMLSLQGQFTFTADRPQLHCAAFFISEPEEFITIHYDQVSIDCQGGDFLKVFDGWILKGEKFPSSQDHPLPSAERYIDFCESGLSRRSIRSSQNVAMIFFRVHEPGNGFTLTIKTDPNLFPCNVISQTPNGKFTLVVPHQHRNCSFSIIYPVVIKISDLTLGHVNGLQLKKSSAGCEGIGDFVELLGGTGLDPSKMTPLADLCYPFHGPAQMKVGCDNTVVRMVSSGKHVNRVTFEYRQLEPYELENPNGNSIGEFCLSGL

[20] = Luminescence Cell-Based Dose Response HTS to Identify Activators of Luciferase Translation or Activity in H4 […] Cells. [Related pubchem assays: 1829 (Project Summary), 1814 (Primary HTS)]; type: functional
H4 = assay: Luminescence Cell-Based Dose Response HTS to Identify Activators of 5'UTR Stem-Loop Driven Prion Protein mRNA Translation in H4 Neuroglioblastoma Cells. [Related pubchem assays: 1829 (Project Summary), 1814 (Primary HTS)]; type: functional; conditions: Homo sapiens
[21] = molecular target: Voltage-dependent T-type calcium channel subunit alpha-1H (Homo sapiens, UniProt O95180); type: functional;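 note: channel activity triggered by adding a high calcium stimulation buffer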
[22] = molecular target: Delta-type opioid receptor (Homo sapiens, UniProt P41143); assay: Counterscreen for agonists of heterodimerization of the mu 1 (OPRM1) and delta 1 (OPRD1) opioid receptors: Luminescence-based cell-based high throughput dose response assay to identify agonists of OPRD1 homodimerization. [Related pubchem assays (depositor defined):AID504326, AID504355, AID504692, AID504904, AID504905]; type: functional
Mu-type opioid receptor = Mu-type opioid receptor (Homo sapiens, UniProt P35372); assay: Counterscreen for agonists of heterodimerization of the mu 1 (OPRM1) and delta 1 (OPRD1) opioid receptors: Luminescence-based cell-based high throughput dose response assay to identify agonists of OPRM1 homodimerization.; type: functional;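 note: U2OS cells expressing OPRM1 and beta-arrestin as split beta-galactosidase partners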
Mu-type opioid receptor, sequence (P35372 whole entry): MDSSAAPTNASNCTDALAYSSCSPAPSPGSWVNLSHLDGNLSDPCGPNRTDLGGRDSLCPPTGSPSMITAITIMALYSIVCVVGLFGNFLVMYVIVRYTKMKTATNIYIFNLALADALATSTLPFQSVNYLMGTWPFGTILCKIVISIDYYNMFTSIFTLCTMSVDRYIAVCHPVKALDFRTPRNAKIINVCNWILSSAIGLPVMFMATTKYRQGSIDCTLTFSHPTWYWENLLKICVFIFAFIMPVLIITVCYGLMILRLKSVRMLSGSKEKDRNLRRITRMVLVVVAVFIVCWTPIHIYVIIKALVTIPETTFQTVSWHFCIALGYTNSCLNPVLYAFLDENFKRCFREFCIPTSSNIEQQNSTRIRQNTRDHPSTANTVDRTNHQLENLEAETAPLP

[23] = molecular target: 5-hydroxytryptamine receptor 5A (Homo sapiens, UniProt P47898); assay: Counterscreen for agonists of OPRM1-OPRD1 heterodimerization: luminescence-based cell-based high throughput dose response assay to identify agonists of 5-hydroxytryptamine (serotonin) 5A receptor (HTR5A). [Related pubchem assays (depositor defined):AID504326, AID504355, AID504692, AID504904, AID504905]; type: functional
5-hydroxytryptamine receptor 5A, sequence (P47898 whole entry): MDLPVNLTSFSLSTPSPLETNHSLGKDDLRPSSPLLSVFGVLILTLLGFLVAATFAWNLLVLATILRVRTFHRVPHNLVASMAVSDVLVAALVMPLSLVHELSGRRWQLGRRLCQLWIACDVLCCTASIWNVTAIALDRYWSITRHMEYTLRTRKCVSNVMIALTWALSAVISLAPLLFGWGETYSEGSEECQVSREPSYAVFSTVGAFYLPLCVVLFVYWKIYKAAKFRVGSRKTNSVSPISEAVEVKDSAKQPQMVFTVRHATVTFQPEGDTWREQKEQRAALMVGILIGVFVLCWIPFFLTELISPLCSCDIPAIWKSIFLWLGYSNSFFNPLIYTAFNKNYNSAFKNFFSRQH

[24] = molecular target: COUP transcription factor 2 (Homo sapiens, UniProt P24468); assay: Luminescence-based cell-based high throughput dose response assay to identify inhibitors of COUP-TFII (NR2F2).; type: functional;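 note: HEK293 cells transiently cotransfected with COUP-TFII expression vector and reporter; luciferase reporter luminescence driven by COUP-TFII from the pX2-168 reporter plasmid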
COUP transcription factor 2, sequence (P24468 whole entry, the tested form may be a part): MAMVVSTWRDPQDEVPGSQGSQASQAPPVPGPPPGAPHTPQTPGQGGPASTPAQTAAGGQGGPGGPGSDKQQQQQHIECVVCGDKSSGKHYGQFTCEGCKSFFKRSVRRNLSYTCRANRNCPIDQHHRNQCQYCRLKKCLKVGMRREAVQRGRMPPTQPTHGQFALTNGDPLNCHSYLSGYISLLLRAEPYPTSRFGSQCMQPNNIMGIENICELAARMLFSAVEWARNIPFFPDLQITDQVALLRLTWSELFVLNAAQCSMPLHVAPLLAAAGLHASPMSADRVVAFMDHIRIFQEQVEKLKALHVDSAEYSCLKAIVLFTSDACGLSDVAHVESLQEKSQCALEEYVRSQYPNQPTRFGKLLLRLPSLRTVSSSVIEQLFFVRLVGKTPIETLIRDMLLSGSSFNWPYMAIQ

[25] = molecular target: T4, Carboxy-terminal domain RNA polymerase II polypeptide A small phosphatase 1 (Homo sapiens, UniProt Q9GZU7); assay: CTDSP1 inhibitors, concentration-response, biochemical, absorbance readout, ultra-high-throughput screen actives (AID 540297); type: functional
T4 sequence (Q9GZU7 whole entry): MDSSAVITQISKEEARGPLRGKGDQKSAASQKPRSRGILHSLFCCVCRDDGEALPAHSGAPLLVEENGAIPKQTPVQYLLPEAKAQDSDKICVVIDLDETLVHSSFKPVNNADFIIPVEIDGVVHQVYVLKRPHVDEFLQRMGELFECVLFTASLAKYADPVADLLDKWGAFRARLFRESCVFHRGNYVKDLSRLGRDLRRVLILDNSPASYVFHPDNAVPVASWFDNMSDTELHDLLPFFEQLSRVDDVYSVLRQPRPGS

T1 sequence (P98170 whole entry): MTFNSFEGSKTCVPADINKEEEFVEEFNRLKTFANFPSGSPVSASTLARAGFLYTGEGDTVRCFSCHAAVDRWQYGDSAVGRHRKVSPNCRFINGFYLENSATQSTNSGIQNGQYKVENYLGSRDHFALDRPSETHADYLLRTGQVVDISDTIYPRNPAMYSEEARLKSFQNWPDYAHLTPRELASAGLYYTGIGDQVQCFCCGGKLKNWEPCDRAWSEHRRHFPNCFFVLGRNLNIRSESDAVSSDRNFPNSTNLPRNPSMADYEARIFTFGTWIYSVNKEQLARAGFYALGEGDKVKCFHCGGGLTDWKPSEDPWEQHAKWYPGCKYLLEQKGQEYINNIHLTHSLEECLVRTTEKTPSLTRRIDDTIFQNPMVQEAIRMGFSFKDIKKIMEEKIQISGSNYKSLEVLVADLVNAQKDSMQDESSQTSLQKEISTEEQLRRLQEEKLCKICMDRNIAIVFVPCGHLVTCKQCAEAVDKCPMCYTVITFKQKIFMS

With `Cc1nn(S(=O)(=O)c2ccc(Cl)cc2)c(C)c1Sc1ccc([N+](=O)[O-])cc1` the IC50 [1] was > 100 µM (inactive), the IC50 [2] was > 100 µM (not active) and the EC50 [3] was 1.73 µM (active). The EC50 [4] was > 60 µM (not active) and the AC50 (INS1) was 6.21 µM (active).
For `O=C(/C=C(O)/C=C/c1ccc(O)cc1)/C=C/c1ccc(O)cc1`, the IC50 (CHO) was 40 µM (inactive) and the IC50 (Beta Lactamase) was 5.13 µM (active).
With `CCOC(=O)N1C(=O)C2(CCCCC2)N(c2ccccc2Cl)C1=S` the EC50 [5] was 39.7 µM (active), the EC50 [6] was < 0.03 µM (active) and the EC50 [7] was > 180 µM (inactive). The IC50 [8] was 5.92 µM (active) and the EC50 [9] was 23.1 µM (active).
With `CCCCNC(=O)CCCn1c(=O)[nH]c2ccc(Br)cc2c1=O` the AC50 (Escherichia coli) was 53.7 µM (active).
With `C=CCOc1ccc2[nH]c(NC(=O)OC)nc2c1` the EC50 (BJ [10]) was 1.69 µM (active), the EC50 (BJ [11]) was 18.4 µM (inconclusive) and the EC50 (BJ [12]) was 1.46 µM (inconclusive). For the same compound, the EC50 [13] was 1.01 µM (active), the EC50 (HEK293 [14]) was > 59.6 µM (inactive) and the EC50 (HEK293 [15]) was > 59.6 µM (inactive).
In the case of `Cc1ccc(N2C(=O)CC(N3CCSCC3)C2=O)c(C)c1` (centres undefined), the EC50 (Ion channel NompC) is reported as > 29.9 µM (inactive) and the EC50 (Mucolipin-3) is reported as > 29.9 µM (not active).
In the case of `O=[N+]([O-])c1c(C(Cl)Cl)nn(-c2ccc(Cl)cc2)c1N1CCCCC1`, the EC50 [5] is reported as > 150 µM (inactive), the EC50 [6] is reported as 0.436 µM (active) and the EC50 [7] is reported as > 180 µM (inactive). For the same compound, the EC50 [9] was 18.7 µM (active).
With `COC(=O)c1c(NC(=O)Cc2cccs2)sc(C(=O)N2CCCCC2)c1C` the EC50 (HEK293 [14]) was > 59.7 µM (inactive) and the EC50 (HEK293 [15]) was > 59.7 µM (inactive).
With `Clc1ccc(CSc2nnc(-c3cccnc3)n2Cc2ccco2)c(Cl)c1` the AC50 [16] was 28 µM (active) and the AC50 [17] was 31.4 µM (active).
With `CCOC(=O)N1CCC(NC(=O)C(NC(=O)C2CCC(C)CC2)C(C)CC)CC1` (centres undefined) the IC50 [1] was > 100 µM (inactive) and the IC50 [2] was > 100 µM (not active).
In the case of `CC(C)c1nc2c(c(=O)c3ccccc3n2C)c(=O)n1CCc1ccccc1`, the CC50 [18] is reported as 36 µM (active), the EC50 (Ion channel NompC) is reported as 3.97 µM (active) and the EC50 (Mucolipin-3) is reported as 3.96 µM (active). The EC50 [19] was 9.93 µM (active) and the IC50 (cells) was 13.2 µM (active).
In the case of `O=c1oc(-c2ccccc2)nc2sc3c(c12)CCCC3`, the EC50 [20] is reported as 38.3 µM (active), the EC50 (H4) is reported as 34.1 µM (active) and the AC50 (Escherichia coli) is reported as 74.8 µM (active).
With `Oc1ccc(Oc2ccc3c(C(F)(F)F)cc(C(F)(F)F)nc3n2)cc1` the EC50 [21] was 3.15 µM (active), the EC50 [22] was > 92.5 µM (inactive) and the EC50 (Mu-type opioid receptor) was > 92.5 µM (inactive). For the same compound, the EC50 [23] was > 92.5 µM (inactive) and the IC50 [24] was 28.2 µM (inactive).
For `C/C(=N\NC(=O)c1cc(-c2cccc([N+](=O)[O-])c2)[nH]n1)c1ccccc1O`, the EC50 [3] was 2.18 µM (active), the EC50 [4] was 6.64 µM (active) and the AC50 [16] was 2.35 µM (active). For the same compound, the AC50 [17] was 50.7 µM (active) and the IC50 [25] was 1.7 µM (active).
